The values below are quoted from earlier work in patent US20250000936A1, “TREATMENT OF GEOGRAPHIC ATROPHY” (Apellis Pharmaceuticals, Inc., priority 2021, published 2025).

This series concerns complement activation. Conditions: complement inhibiting activity relative to C-terminally amidated compstatin; cited from earlier work.

For “Ac-ICV(Bpa)QDWGAHRCT-CONH2 (N-acetyl, C-amide, Bpa) [Ac-V4(Bpa)/H9A]”, the Activity over compstatin is 86xmore. With “Ac-ICVWQDWGAHRCdT-COOH [Ac-V4W/H9A/T13dT-OH]”, the Activity over compstatin is given as 55xmore.

On to “Ac-ICV(1-Nal)QDWGAHRCT-COOH (N-acetyl, 1-Nal) [Ac V4(1-Nal)/H9A-OH]”, for which the Activity over compstatin is reported as 30xmore.

Turning to “Ac-ICVDhtQDWGAHRCT-COOH [Ac-V4Dht/H9A-OH]”, the Activity over compstatin is listed as 5xmore.

On to Ac-ICVVQDWGHHRCT-CONH2 [Ac-compstatin], for which the Activity over compstatin is on record as 3xmore. Consider “Ac-ICV(2-Igl)QDWGAHRCT-COOH (N-acetyl, 2-Igl) [Ac-V42Igl/H9A-OH]”, for which the Activity over compstatin is 37xmore. For the substance “Ac-ICV(2-Nal)QDWGAHRCT-CONH2 (N-acetyl, C-amide, 2-Nal) [Ac-V4(2-Nal)/H9A]”, the Activity over compstatin is given as 99xmore. For the substance “Ac-ICV(2-Igl)QDWGAHRCT-CONH2 (N-acetyl, C-amide, 2-Igl) [Ac-V42Igl/H9A]”, the Activity over compstatin is on record as 39xmore. Take “Ac-ICV(2-Nal)QDWGAHRCT-COOH (N-acetyl, 2-Nal) [Ac V4(2-Nal)/H9A-OH]”: the Activity over compstatin is on record as 38xmore. Turning to Ac-ICVYQDWGAHRCT-CONH2 [Ac-V4Y/H9A], the Activity over compstatin is reported as 14xmore. In the case of “H-GICV(6fW)QD(6fW)GAHRCTN-COOH (6-fluoro-Trp residues) [+G/V4(6fW)/W7(6fW)H9A+N-OH]”, the Activity over compstatin is recorded as 126xmore. Turning to “Ac-ICVWQDWGAHRCT-CONH2 (Ac-ICVWQDWGAHRCT-NH2; cysteine pairing not given here) [Ac-V4W/H9A]”, the Activity over compstatin is on record as 45xmore. In the case of “Ac-ICV(Bpa)QDWGAHRCT-COOH (N-acetyl, Bpa) [Ac-V4(Bpa)/H9A-OH]”, the Activity over compstatin was 49xmore. For the substance “Ac-ICVWQD(5fW)GAHRCT-CONH2 [Ac-V4W/W7(5fW)/H9A]”, the Activity over compstatin is on record as 121xmore.
